Measured values: patent publication US20020169101A1, “Treatment of sexual dysfunction” (priority 1999, published 2002)
Entries after “also recorded” stand apart in the source; their conditions may differ.

Tests used:
[1] = tested on: female genital blood flow; assay: Female genital blood flow in the anaesthetised rabbit model of sexual arousal (pelvic nerve stimulation); assay type: in vivo; details: 15 mg/kg sc; for basal genital blood flow in the absence of PNS / pelvic-nerve stimulated (PNS) increases in genital (vaginal and clitoral) blood flow: anaesthetised female rabbit (FIGS. 22, 23)
Experimental: Female New Zealand rabbits (˜2.5kg) were pre-medicated with a combination of Medetomidine (Domitor®) 0.5 ml/kg i.m., and Ketamine (Vetalar®) 0.25 ml/kg im. whilst maintaining oxygen intake via a face mask. The rabbits were tracheotomised using a PortexTM uncuffed endotracheal tube 3 ID., connected to ventilator and maintained at a ventilation rate of 30-40 breaths per minute, with an approximate tidal volume of 18-20 ml, and a maximum airway pressure of 10 cm H2O. Anaesthesia was then switched to Isoflurane and ventilation continued with O2 at 21/min. The right marginal ear vein was cannulated using a 23G or 24G catheter, and Lactated Ringer solution perfused at 0.5 ml/min. The rabbit was maintained at 3% Isoflurane during invasive surgery, dropping to 2% for maintenance anaesthesia.
The left groin area of the rabbit was shaved and a vertical incision was made approximately 5 cm in length along the thigh. The femoral vein and artery were exposed, isolated and then cannulated with a PVC catheter (17G) for the infusion of drugs and compounds. Cannulation was repeated for the femoral artery, inserting the catheter to a depth of 10 cm to ensure that the catheter reached the abdominal aorta. This arterial catheter was linked to a Gould system to record blood pressure. Samples for blood gas analysis were also taken via the arterial catheter. Systolic and diastolic pressures were measured, and the mean arterial pressure calculated using the formula (diastolic x2 +systolic)÷3. Heart rate was measured via the pulse oxymeter and Po-ne-mah data acquisition software system (Ponemah Physiology Platform, Gould Instrument Systems Inc). A ventral midline incision was made into the abdominal cavity. The incision was about 5 cm in length just above the pubis. The fat and muscle was bluntly dissected away to reveal the hypogastric nerve which runs down the body cavity. It was essential to keep close to the side curve of the pubis wall in order to avoid damaging the femoral vein and artery which lie above the pubis. The sciatic and pelvic nerves lie deeper and were located after further dissection on the dorsal side of the rabbit. Once the sciatic nerve is identified, the pelvic nerve was easily located. The term pelvic nerve is loosely applied; anatomy books on the subject fail to identify the nerves in sufficient detail. However, stimulation of the nerve causes an increase in vaginal and clitoral blood flow, and innervation of the pelvic region. The pelvic nerve was freed away from surrounding tissue and a Harvard bipolar stimulating electrode was placed around the nerve. The nerve was slightly lifted to give some tension, then the electrode was secured in position. Approximately 1 ml of light paraffin oil was placed around the nerve and electrode. This acts as a protective lubricant to the nerve and prevents blood contamination of the electrode. The electrode was connected to a Grass S88 Stimulator. The pelvic nerve was stimulated using the following parameters:-5V, pulse width 0.5 ms, duration of stimulus 10 seconds and a frequency range of 2 to 16 Hz. Reproducible responses were obtained when the nerve was stimulated every 15-20 minutes. A frequency response curve was determined at the start of each experiment in order to determine the optimum frequency to use as a sub-maximal response, normally 4 Hz. A ventral midline incision was made, at the caudal end of the pubis, to expose the pubic area. Connective tissue was removed to expose the tunica of the clitoris, ensuring that the wall was free from small blood vessels. The external vaginal wall was also exposed by removing any connective tissue. One laser Doppler flow probe was inserted 3 cm into the vagina, so that half the probe shaft was still visible. A second probe was positioned so that it lay just above the external clitoral wall. The position of these probes was then adjusted until a signal was obtained. A second probe was placed just above the surface of a blood vessel on the external vaginal wall. […]

[2] = tested on: penile intracavernosal pressure; assay: Penile intracavernosal pressure in the conscious male rat (telemetry); assay type: in vivo; details: Compound 1 10 mg/kg sc, one hour after, Compound 3 15 mg/kg sc, 45 minutes after, conscious male rat (FIGS. 24, 25)
Experimental: In addition to treating women with FSD, bombesin antagonists will be useful in treating male erectile dysfunction (MED. Both the non-selective BB1/2 antagonists (Compound 1; 10 mg/kg sc) and the selective BB1 receptor antagonist (Compound 3; 15 mg/kg sc) is pro-erectile in a conscious rat model of penile erection (FIGS. 24 and 25). Erectile responses were recorded by measuring intracavemosal pressure using surgically implanted telemetric device. The specific details the surgical procedures, data acquisition and analysis can be found in detail in Bernabe 1999.
Compound 1 and compound 3 were dissolved in 50% β-cyclodextrin in saline. They were administered at a dose of […] subcutaneously (sc). […] These increases equate to penile erection. Both Compounds 1 and 3 induced a number of erections in a similar manner to those observed with apomorphine or melanotan-II—both of which are clinically proven agents that are effective in the treatment of MED. Moreover the amplitude of the increases observed were similar to those observed with apomorphine or melanotan-II. The mechanism of action is thought to be similar to the effects on female genital flow ie CNS potentiation of the descending neuronal pathways that control penile erection.

human GRP receptor (BB2) = target: T1, human GRP receptor (BB2) (Homo sapiens, UniProt P30550); assay: BB2 binding assay ([125I][Tyr4]bombesin displacement, CHO-K1 membranes); details: read-out: hBB2 Ki
T1 construct: expressed in transfected cells; membranes prepared from the cells
Method in brief: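 Membranes from CHO-K1 cells stably expressing human NMB (BB1) or GRP (BB2) receptors, in 50 mM Tris-HCl pH 7.4 with BSA and protease inhibitors, incubated with [125I][Tyr4]bombesin (<0.1 nM) for 60 min (BB1) or 90 min (BB2). Nonspecific binding defined with 1 μM bombesin; filtration and gamma counting; IC50 converted to Ki by Cheng-Prusoff.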

T1 sequence (P30550 whole entry): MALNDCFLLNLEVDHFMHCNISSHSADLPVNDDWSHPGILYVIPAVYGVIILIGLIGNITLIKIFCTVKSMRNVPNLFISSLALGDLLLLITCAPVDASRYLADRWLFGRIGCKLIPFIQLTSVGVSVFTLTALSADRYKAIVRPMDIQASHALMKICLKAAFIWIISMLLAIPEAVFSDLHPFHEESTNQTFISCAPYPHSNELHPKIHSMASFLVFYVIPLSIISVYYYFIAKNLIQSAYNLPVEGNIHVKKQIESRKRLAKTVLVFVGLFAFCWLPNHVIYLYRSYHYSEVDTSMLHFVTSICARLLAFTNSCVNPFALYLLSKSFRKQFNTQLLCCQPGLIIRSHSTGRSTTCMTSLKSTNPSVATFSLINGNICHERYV

Row | Ki (human GRP receptor (BB2)) [nM] | SMILES | basal genital blood flow in the absence of PNS [1] | pelvic-nerve stimulated (PNS) increases in genital (vaginal and clitoral) blood flow [1] | penile intracavernosal pressure / erection [2] | time after sc dosing at which potentiation was significant [1] [min] | time potentiation remained elevated [1] | penile intracavernosal pressure / erection ([2]; listed as compound 3)
1 |  | COc1ccc(C2(CNC(=O)[C@](C)(Cc3c[nH]c4ccccc34)NC(=O)Nc3ccc([N+](=O)[O-])cc3)CCCCC2)nc1 [Compound (1), (S) 3-(1H-Indol-3-yl)-N-[1-(5-methoxy-pyridin-2-yl)-cyclohexyl-methyl]-2-methyl-2-[3-(4-nitro-phenyl)-ureido]-propionamide] | no effect on basal genital blood flow | potent enhancer of pelvic-nerve stimulated (PNS) increases in genital blood flow | pro-erectile; also recorded: significant increases in intracavernosal pressure |  |  | 
2 | 46 | C[C@@](Cc1c[nH]c2ccccc12)(NC(=O)Nc1ccc([N+](=O)[O-])cc1)C(=O)NCC1(c2ccc(N)cc2)CCCCC1 [Compound 3, (2S)-N-{[1-(4-aminophenyl)cyclohexyl]methyl}-3-(1H-indol-3-yl)-2-methyl-2-{[(4-nitroanilino)-carbonyl]amino}propanamide] | no effect on basal genital blood flow | potent enhancer of pelvic-nerve stimulated (PNS) increases in vaginal and clitoral blood flow | pro-erectile | 45 | circa 1 hr | significant increases in intracavernosal pressure
